tested on: Bmi-1; assay: Sandwich ELISA Assay (Bmi-1 ELISA) in HT-1080 cells; assay type: cell-based
In short: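 Bmi-1 in lysates was measured by a three-antibody ELISA with TMB, OD450 minus OD570 reference, interpolated on a GST-tagged recombinant Bmi-1 standard curve, 0-8000 pg/mL. Lysates came from HT-1080 cells treated 40-48 h with compound, final DMSO 0.5%.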

Row | Compound | EC50 [nM]
1 | Cc1nc2ccc(F)cc2n1-c1nc(N)c(F)c(Nc2ccc(Cl)cc2)n1 [Cpd 185, N-(4-chlorophenyl)-5-fluoro-2-(6-fluoro-2-methyl-1H-benzimidazol-1-yl)pyrimidine-4,6-diamine] | 10 to 100
2 | COc1cccc(Nc2nc(-n3c(C)nc4ccc(F)cc43)nc(N)c2F)c1 [Cpd 189, 5-fluoro-2-(6-fluoro-2-methyl-1H-benzimidazol-1-yl)-N-(3-methoxyphenyl)pyrimidine-4,6-diamine] | 100 to 3000
3 | Cc1nc2ccc(F)cc2n1-c1nc(N)c(F)c(Nc2cccc(Cl)c2)n1 [Cpd 190, N-(3-chlorophenyl)-5-fluoro-2-(6-fluoro-2-methyl-1H-benzimidazol-1-yl)pyrimidine-4,6-diamine] | 100 to 3000
4 | Cc1nc2ccc(F)cc2n1-c1nc(N)c(F)c(Nc2ccc(OC(F)(F)F)cc2)n1 [Cpd 191, 5-fluoro-2-(6-fluoro-2-methyl-1H-benzimidazol-1-yl)-N-[4-(trifluoromethoxy)phenyl]pyrimidine-4,6-diamine] | 10 to 100
5 | Cc1nc2ccc(F)cc2n1-c1nc(N)c(F)c(Nc2ccc(C#N)cc2)n1 [Cpd 192, 4-{[6-amino-5-fluoro-2-(6-fluoro-2-methyl-1H-benzimidazol-1-yl)pyrimidin-4-yl]amino}benzonitrile] | 100 to 3000
6 | COC(=O)c1ccc(Nc2nc(-n3c(C)nc4ccc(F)cc43)nc(N)c2F)cc1 [Cpd 193, methyl 4-{[6-amino-5-fluoro-2-(6-fluoro-2-methyl-1H-benzimidazol-1-yl)pyrimidin-4-yl]amino}benzoate] | 10 to 100
7 | Cc1cccc(Nc2nc(-n3c(C)nc4ccccc43)nc(N)c2F)c1 [Cpd 194, 5-fluoro-2-(2-methyl-1H-benzimidazol-1-yl)-N-(3-methylphenyl)pyrimidine-4,6-diamine] | 100 to 3000
8 | COc1cccc(Nc2nc(-n3c(C)nc4ccccc43)nc(N)c2F)c1 [Cpd 195, 5-fluoro-N-(3-methoxyphenyl)-2-(2-methyl-1H-benzimidazol-1-yl)pyrimidine-4,6-diamine] | 100 to 3000
9 | Cc1ccc(Nc2cc(N)nc(-n3c(C)nc4ccccc43)n2)cc1 [Cpd 196, 2-(2-methyl-1H-benzimidazol-1-yl)-N-(4-methylphenyl)pyrimidine-4,6-diamine] | 1 to 10
10 | COc1ccc(Nc2cc(N)nc(-n3c(C)nc4ccccc43)n2)cc1 [Cpd 197, N-(4-methoxyphenyl)-2-(2-methyl-1H-benzimidazol-1-yl)pyrimidine-4,6-diamine] | 1 to 10
11 | Cc1nc2ccccc2n1-c1nc(N)cc(Nc2ccc(N(C)C)cc2)n1 [Cpd 198, N-[4-(dimethylamino)phenyl]-2-(2-methyl-1H-benzimidazol-1-yl)pyrimidine-4,6-diamine] | 1 to 10
12 | Cc1ccc(Nc2nc(-n3c(C)nc4ccccc43)nc(N)c2F)cc1 [Cpd 199, 5-fluoro-2-(2-methyl-1H-benzimidazol-1-yl)-N-(4-methylphenyl)pyrimidine-4,6-diamine] | 1 to 10
13 | COc1ccc(Nc2nc(-n3c(C)nc4ccccc43)nc(N)c2F)cc1 [Cpd 200, 5-fluoro-N-(4-methoxyphenyl)-2-(2-methyl-1H-benzimidazol-1-yl)pyrimidine-4,6-diamine] | 1 to 10
14 | Cc1nc2ccccc2n1-c1nc(N)c(F)c(Nc2ccc(Cl)cc2)n1 [Cpd 201, N-(4-chlorophenyl)-5-fluoro-2-(2-methyl-1H-benzimidazol-1-yl)pyrimidine-4,6-diamine] | 10 to 100
15 | Cc1nc2ccccc2n1-c1nc(N)c(F)c(Nc2ccc(C#N)cc2)n1 [Cpd 202, 4-{[6-amino-5-fluoro-2-(2-methyl-1H-benzimidazol-1-yl)pyrimidin-4-yl]amino}benzonitrile] | 100 to 3000
16 | Cc1nc2ccccc2n1-c1nc(N)c(F)c(Nc2ccc3c(c2)OCO3)n1 [Cpd 203, N-(1,3-benzodioxol-5-yl)-5-fluoro-2-(2-methyl-1H-benzimidazol-1-yl)pyrimidine-4,6-diamine] | 1 to 10
17 | Cc1nc2ccccc2n1-c1nc(N)c(F)c(Nc2ccc(OC(F)(F)F)cc2)n1 [Cpd 204, 5-fluoro-2-(2-methyl-1H-benzimidazol-1-yl)-N-[4-(trifluoromethoxy)phenyl]pyrimidine-4,6-diamine] | 10 to 100
18 | Cc1nc2ccccc2n1-c1nc(N)cc(Nc2ccc(Cl)cc2)n1 [Cpd 209, N-(4-chlorophenyl)-2-(2-methyl-1H-benzimidazol-1-yl)pyrimidine-4,6-diamine] | 10 to 100
19 | Cc1nc2ccccc2n1-c1nc(N)cc(Nc2ccc(C#N)cc2)n1 [Cpd 210, 4-{[6-amino-2-(2-methyl-1H-benzimidazol-1-yl)pyrimidin-4-yl]amino}benzonitrile] | 100 to 3000
20 | Cc1nc2ccccc2n1-c1nc(N)cc(Nc2ccc([N+](=O)[O-])cc2)n1 [Cpd 211, 2-(2-methyl-1H-benzimidazol-1-yl)-N-(4-nitrophenyl)pyrimidine-4,6-diamine] | 100 to 3000

Row | Compound | EC50 [nM]
21 | Cc1nc2ccccc2n1-c1nc(N)cc(Nc2ccc(Br)cc2)n1 [Cpd 212, N-(4-bromophenyl)-2-(2-methyl-1H-benzimidazol-1-yl)pyrimidine-4,6-diamine] | 10 to 100
22 | Cc1ccc(Nc2nc(-n3c(C)nc4cc(F)c(F)cc43)nc(N)c2F)cc1 [Cpd 213, 2-(5,6-difluoro-2-methyl-1H-benzimidazol-1-yl)-5-fluoro-N-(4-methylphenyl)pyrimidine-4,6-diamine] | 1 to 10
23 | COc1ccc(Nc2nc(-n3c(C)nc4cc(F)c(F)cc43)nc(N)c2F)cc1 [Cpd 214, 2-(5,6-difluoro-2-methyl-1H-benzimidazol-1-yl)-5-fluoro-N-(4-methoxyphenyl)pyrimidine-4,6-diamine] | 10 to 100
24 | Cc1nc2cc(F)c(F)cc2n1-c1nc(N)c(F)c(Nc2ccc(Cl)cc2)n1 [Cpd 215, N-(4-chlorophenyl)-2-(5,6-difluoro-2-methyl-1H-benzimidazol-1-yl)-5-fluoropyrimidine-4,6-diamine] | 100 to 3000
25 | COCc1nc2ccccc2n1-c1nc(N)c(F)c(Nc2ccc(OC(F)F)cc2)n1 [Cpd 216, N-[4-(difluoromethoxy)phenyl]-5-fluoro-2-[2-(methoxymethyl)-1H-benzimidazol-1-yl]pyrimidine-4,6-diamine] | 10 to 100
26 | COCc1nc2ccccc2n1-c1nc(N)c(F)c(Nc2ccc(C)cc2)n1 [Cpd 217, 5-fluoro-2-[2-(methoxymethyl)-1H-benzimidazol-1-yl]-N-(4-methylphenyl)pyrimidine-4,6-diamine] | 10 to 100
27 | COCc1nc2ccccc2n1-c1nc(N)c(F)c(Nc2ccc(OC)cc2)n1 [Cpd 218, 5-fluoro-2-[2-(methoxymethyl)-1H-benzimidazol-1-yl]-N-(4-methoxyphenyl)pyrimidine-4,6-diamine] | 1 to 10
28 | COCc1nc2ccccc2n1-c1nc(N)c(F)c(Nc2ccc(Cl)cc2)n1 [Cpd 219, N-(4-chlorophenyl)-5-fluoro-2-[2-(methoxymethyl)-1H-benzimidazol-1-yl]pyrimidine-4,6-diamine] | 100 to 3000
29 | COCc1nc2ccccc2n1-c1nc(N)c(F)c(Nc2ccc(C(F)(F)F)cc2)n1 [Cpd 220, 5-fluoro-2-[2-(methoxymethyl)-1H-benzimidazol-1-yl]-N-[4-(trifluoromethyl)phenyl]pyrimidine-4,6-diamine] | 10 to 100
30 | Cc1nc2ccccc2n1-c1nc(N)cc(Nc2ccc(OC(F)(F)F)cc2)n1 [Cpd 221, 2-(2-methyl-1H-benzimidazol-1-yl)-N-[4-(trifluoromethoxy)phenyl]pyrimidine-4,6-diamine] | 100 to 3000
31 | Cc1nc2ccc(C#N)cc2n1-c1nc(N)c(F)c(Nc2ccc(C(F)(F)F)cc2)n1 [Cpd 222, 1-(4-amino-5-fluoro-6-{[4-(trifluoromethyl)phenyl]amino}pyrimidin-2-yl)-2-methyl-1H-benzimidazole-6-carbonitrile] | 100 to 3000
32 | Cc1nc2ccc(C#N)cc2n1-c1nc(N)c(F)c(Nc2ccc(OC(F)F)cc2)n1 [Cpd 223, 1-(4-amino-6-{[4-(difluoromethoxy)phenyl]amino}-5-fluoropyrimidin-2-yl)-2-methyl-1H-benzimidazole-6-carbonitrile] | 100 to 3000
33 | Cc1ccc(Nc2nc(-n3c(C)nc4ccc(C#N)cc43)nc(N)c2F)cc1 [Cpd 224] | 10 to 100
34 | COc1ccc(Nc2nc(-n3c(C)nc4ccc(C#N)cc43)nc(N)c2F)cc1 [Cpd 225, 1-{4-amino-5-fluoro-6-[(4-methoxyphenyl)amino]pyrimidin-2-yl}-2-methyl-1H-benzimidazole-6-carbonitrile] | 10 to 100
35 | Cc1nc2cc(C#N)ccc2n1-c1nc(N)c(F)c(Nc2ccc(OC(F)F)cc2)n1 [Cpd 226, 1-(4-amino-6-{[4-(difluoromethoxy)phenyl]amino}-5-fluoropyrimidin-2-yl)-2-methyl-1H-benzimidazole-5-carbonitrile] | 100 to 3000
36 | Cc1ccc(Nc2nc(-n3c(C)nc4cc(C#N)ccc43)nc(N)c2F)cc1 [Cpd 227, 1-{4-amino-5-fluoro-6-[(4-methylphenyl)amino]pyrimidin-2-yl}-2-methyl-1H-benzimidazole-5-carbonitrile] | 10 to 100
37 | COc1ccc(Nc2nc(-n3c(C)nc4cc(C#N)ccc43)nc(N)c2F)cc1 [Cpd 228] | 10 to 100
38 | Cc1nc2cc(C#N)ccc2n1-c1nc(N)c(F)c(Nc2ccc(C(F)(F)F)cc2)n1 [Cpd 229, 1-(4-amino-5-fluoro-6-{[4-(trifluoromethyl)phenyl]amino}pyrimidin-2-yl)-2-methyl-1H-benzimidazole-5-carbonitrile] | 100 to 3000
39 | Cc1nc2cc(C#N)ccc2n1-c1nc(N)c(F)c(Nc2ccc(Cl)cc2)n1 [Cpd 230, 1-{4-amino-6-[(4-chlorophenyl)amino]-5-fluoropyrimidin-2-yl}-2-methyl-1H-benzimidazole-5-carbonitrile] | 100 to 3000
40 | Cc1nc2ccc([N+](=O)[O-])cc2n1-c1nc(N)c(F)c(Nc2ccc(OC(F)F)cc2)n1 [Cpd 231, N-[4-(difluoromethoxy)phenyl]-5-fluoro-2-(2-methyl-6-nitro-1H-benzimidazol-1-yl)pyrimidine-4,6-diamine] | 100 to 3000
